According to the supplement of paper PMC10307832:

Columns and labels:
Assay in all cases: relative viability (nuclei count vs DMSO), 5 days (fraction); higher = more cells survive
[1] = compound: CN(c1ncccc1CNc1nc(Nc2ccc3c(c2)CC(=O)N3)ncc1C(F)(F)F)S(C)(=O)=O + Cc1nc(NC(=O)N2CCC[C@H]2C(N)=O)sc1-c1ccnc(C(C)(C)C(F)(F)F)c1 [Alpelisib] (partner 2 µM)
Summary of the method: (§1)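 Medians of duplicate plates are given as relative viability. That measure is the nuclei count in treated wells divided by the count in vehicle wells. Counts were taken on 4× images of lung cancer cell lines in 1536-well plates, 5 days after pin-tool dosing the day after seeding with one drug alone or a fixed anchor-drug dose plus five library-drug doses (not always all listed) in √10 steps.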

[2] = compound: CN(c1ncccc1CNc1nc(Nc2ccc3c(c2)CC(=O)N3)ncc1C(F)(F)F)S(C)(=O)=O + CS(=O)(=O)N1CCN(Cc2cc3nc(-c4cccc5[nH]ncc45)nc(N4CCOCC4)c3s2)CC1 [Pictilisib] (partner 1 µM)
Summary of the method: as §1

[3] = compound: CN(c1ncccc1CNc1nc(Nc2ccc3c(c2)CC(=O)N3)ncc1C(F)(F)F)S(C)(=O)=O + Nc1ncn([C@H]2C[C@H](O)[C@@H](CO)O2)c(=O)n1 [Decitabine] (partner 2 µM)
Summary of the method: as §1

[4] = compound: CN(c1ncccc1CNc1nc(Nc2ccc3c(c2)CC(=O)N3)ncc1C(F)(F)F)S(C)(=O)=O + C[C@]1(O)C[C@@H](c2nc(-c3ccc4ccc(-c5ccccc5)nc4c3)c3c(N)nccn32)C1 [Linsitinib] (partner 1 µM)
Summary of the method: as §1

Cell Line	relative viability ([1]; first compound 0.01 µM)	relative viability ([1]; first compound 0.03162 µM)	relative viability ([1]; first compound 0.1 µM)	relative viability ([1]; first compound 0.3162 µM)	relative viability ([1]; first compound 1 µM)	relative viability ([2]; first compound 0.01 µM)	relative viability ([2]; first compound 0.03162 µM)	relative viability ([2]; first compound 0.1 µM)	relative viability ([2]; first compound 0.3162 µM)	relative viability ([2]; first compound 1 µM)	relative viability ([3]; first compound 0.01 µM)	relative viability ([3]; first compound 0.03162 µM)	relative viability ([3]; first compound 0.1 µM)	relative viability ([3]; first compound 0.3162 µM)	relative viability ([3]; first compound 1 µM)	relative viability ([4]; first compound 0.01 µM)	relative viability ([4]; first compound 0.03162 µM)	relative viability ([4]; first compound 0.1 µM)	relative viability ([4]; first compound 0.3162 µM)	relative viability ([4]; first compound 1 µM)
NCI-H1792	0.661	0.68	0.654	0.695	0.728	0.263	0.281	0.323	0.306	0.332	0.469	0.586	0.523	0.606	0.586	0.442	0.487	0.512	0.566	0.559
NCI-H1355	0.882	0.945	0.797	0.801	0.696	0.399	0.474	0.346	0.432	0.381	0.368	0.36	0.337	0.404	0.379	0.776	0.943	0.846	0.78	0.679
SW 1573	0.73	1.08	0.628	0.922	0.778	0.584	0.52	0.422	0.573	0.454	0.583	0.492	0.469	0.657	0.68	0.926	0.635	0.754	0.863	0.867
A549	0.754	0.905	0.726	0.906	0.712	0.474	0.63	0.569	0.452	0.409	0.271	0.258	0.285	0.257	0.257	0.526	0.761	0.558	0.606	0.694
NCI-H2347	1.06	0.973	0.893	0.972	0.817	0.609	0.614	0.74	0.919	0.362	0.655	0.598	0.587	0.593	0.57	0.938	0.98	0.852	0.947	0.817
LCLC-97TM1	–	0.246	0.229	0.246	0.161	–	0.23	0.196	0.159	0.148	0.228	0.212	0.2	0.238	0.215	–	0.226	0.167	0.216	0.152
EMC-BAC-2	0.761	0.811	0.68	0.698	0.676	0.576	0.505	0.465	0.528	0.5	0.994	1.02	0.915	0.963	0.982	0.797	0.838	0.792	0.79	0.804
NCI-H1975	0.66	0.592	0.611	0.67	0.59	0.278	0.282	0.337	0.268	0.281	0.423	0.403	0.432	0.417	0.436	1.01	1.22	1.02	0.925	0.821
BEN	1.02	1.2	1.02	1.05	1.03	0.595	0.585	0.512	0.594	0.703	0.739	0.739	0.715	0.763	0.671	0.912	0.972	0.938	0.879	1.04
NCI-H23	0.668	0.84	0.727	0.692	0.56	0.554	0.492	0.564	0.495	0.441	0.308	0.345	0.319	0.332	0.292	0.598	0.695	0.549	0.678	0.723
NCI-H520	0.985	0.894	0.829	0.96	1	0.285	0.386	0.322	0.277	0.379	0.549	0.655	0.484	0.49	0.549	1.03	0.941	1	1.03	0.842
EPLC-272H	0.811	1.1	0.781	0.885	0.927	0.256	0.269	0.298	0.209	0.336	0.367	0.339	0.357	0.397	0.336	1.21	1.12	1.22	1.33	1.12
LCLC-103H	1.04	0.982	0.868	0.872	0.897	0.558	0.561	0.6	0.536	0.577	0.68	0.673	0.697	0.672	0.684	1.1	1.1	0.983	0.977	0.88
NCI-H2405	0.837	0.757	0.719	0.72	0.727	0.552	0.393	0.42	0.383	0.376	0.766	0.735	0.67	0.681	0.648	0.899	0.935	0.818	0.865	0.824
HCC-15	0.849	0.892	0.819	0.785	0.779	0.817	0.68	0.711	0.716	0.622	0.639	0.629	0.548	0.496	0.523	0.898	0.894	0.802	0.86	0.688
PC-3 [JPC-3]	0.993	1.14	0.941	1.02	0.952	0.747	0.723	0.75	0.782	0.71	0.826	–	0.821	0.884	0.834	0.984	1.01	0.938	0.925	0.835
